US5530126A, “Process for the preparation of substituted 6-(pyrazol-3yl)-1,4-benzoxazin-3-ones” (Monsanto Company, priority 1994, dated 1996)

Experiments:
Format in all cases: in vivo
Annual bluegrass [1] = assay: Pre-emergence herbicide test; conditions: read-out: % plant inhibition (Anbg); for inhibition at 11210 g/ha: 11.21 kg/ha
Method: (§1) The tests for pre-emergence herbicide activity are conducted as follows:
(§2) Topsoil is placed in an aluminum pan and compacted to a depth of 0.95 to 1.27 cm from the top of the pan. On the top of the soil is placed a predetermined number of seeds of each of several monocotyledonous and dicotyledonous annual plant species and/or vegetative propagules of various perennial plant species. A known amount of the active ingredient dissolved or suspended in an organic solvent, e.g., acetone, or water as carrier is then applied directly to the seed bed, which is then covered with a layer of untreated topsoil to level fill the pan. After treatment, the pans are moved to a greenhouse bench where they are watered from below as needed to give adequate moisture for germination and growth.
(§3) Approximately 10-14 days (usually 11 days) after seeding and treating, the pans are observed and the results (% inhibition) are recorded.
(§4) Tables 7 and 7A below summarize the results of the pre-emergence herbicidal activity tests of compounds of this invention in weeds. The herbicidal rating shown in these tables is the percent inhibition of each plant species. The plant species usually regarded as weeds which are utilized in one set of tests, the data for which are shown in the tables, are identified by letter headings above the columns in accordance with the following legend: […]

Barnyardgrass [2] = assay: Pre-emergence herbicide test; conditions: Echinochloa crus-galli, read-out: % plant inhibition (Bygr); for inhibition at 11210 g/ha: 11.21 kg/ha
Method: as §1, §2, §3, §4

Cocklebur [3] = assay: Pre-emergence herbicide test; conditions: Xanthium strumarium, read-out: % plant inhibition (Cobu); for inhibition at 11210 g/ha: 11.21 kg/ha
Method: as §1, §2, §3, §4

Downy Brome [4] = assay: Pre-emergence herbicide test; conditions: Bromus tectorum, read-out: % plant inhibition (Dobr); for inhibition at 11210 g/ha: 11.21 kg/ha
Method: as §1, §2, §3, §4

Indian Mustard [5] = assay: Pre-emergence herbicide test; conditions: Brassica juncea, read-out: % plant inhibition (Inmu); for inhibition at 11210 g/ha: 11.21 kg/ha
Method: as §1, §2, §3, §4

Morningglory [6] = assay: Pre-emergence herbicide test; conditions: Ipomoea, read-out: % plant inhibition (Mogl); for inhibition at 11210 g/ha: 11.21 kg/ha
Method: as §1, §2, §3, §4

Seedling johnsongrass [7] = assay: Pre-emergence herbicide test; conditions: Sorghum halepense, read-out: % plant inhibition (Sejg); for inhibition at 11210 g/ha: 11.21 kg/ha
Method: as §1, §2, §3, §4

Velvetleaf [8] = assay: Pre-emergence herbicide test; conditions: Abutilon theophrasti, read-out: % plant inhibition (Vele); for inhibition at 11210 g/ha: 11.21 kg/ha
Method: as §1, §2, §3, §4

Wild buckwheat [9] = assay: Pre-emergence herbicide test; conditions: Fallopia convolvulus, read-out: % plant inhibition (Wibw); for inhibition at 11210 g/ha: 11.21 kg/ha
Method: as §1, §2, §3, §4

Yellow nutsedge [10] = assay: Pre-emergence herbicide test; conditions: Cyperus, read-out: % plant inhibition (Yens); for inhibition at 11210 g/ha: 11.21 kg/ha
Method: as §1, §2, §3, §4

Annual bluegrass [11] = assay: Post-emergence herbicide test; conditions: read-out: % plant inhibition (Anbg); for inhibition at 11210 g/ha: 11.21 kg/ha
Text: (§5) Topsoil is placed in aluminum pans having holes in the bottom and compacted to a depth of 0.95 to 1.27 cm from the top of the pan. A predetermined number of seeds of each of several dicotyledonous and monocotyledonous annual plant species and/or vegetative propagules for the perennial plant species are placed on the soil and pressed into the soil surface. The seeds and/or vegetative propagules are covered with soil and leveled. The pans are then placed on a bench in the greenhouse and watered from below as needed. After the plants reach the desired age (two to three weeks), each pan, is removed individually to a spraying chamber and sprayed by means of an atomizer, operating at a spray pressure of 170.3 kPa (10 psig) at the application rates noted. In the spray solution is an amount of an emulsifying agent mixture to give a spray solution or suspension which contains about 0.4% by volume of the emulsifier. The spray solution or suspension contains a sufficient amount of the candidate chemical in order to give application rates of the active ingredient corresponding to those shown in Tables 8 and 8A, while applying a total amount of solution or suspension equivalent to 1870 L/Ha (200 gallons/acre). The pans were returned to the greenhouse and watered as before and the injury to the plants as compared to the control is observed at approximately 10-14 days (usually 11 days) and in some instances observed again at 24-28 days (usually 25 days) after spraying. The post-emergent herbicidal activity shown in these tables is the percent inhibition of each plant species.

Barnyardgrass [12] = assay: Post-emergence herbicide test; conditions: Echinochloa crus-galli, read-out: % plant inhibition (Bygr); for inhibition at 11210 g/ha: 11.21 kg/ha
Text: as §5

Cocklebur [13] = assay: Post-emergence herbicide test; conditions: Xanthium strumarium, read-out: % plant inhibition (Cobu); for inhibition at 11210 g/ha: 11.21 kg/ha
Text: as §5

Downy Brome [14] = assay: Post-emergence herbicide test; conditions: Bromus tectorum, read-out: % plant inhibition (Dobr); for inhibition at 11210 g/ha: 11.21 kg/ha
Text: as §5

Indian Mustard [15] = assay: Post-emergence herbicide test; conditions: Brassica juncea, read-out: % plant inhibition (Inmu); for inhibition at 11210 g/ha: 11.21 kg/ha
Text: as §5

Morningglory [16] = assay: Post-emergence herbicide test; conditions: Ipomoea, read-out: % plant inhibition (Mogl); for inhibition at 11210 g/ha: 11.21 kg/ha
Text: as §5

Seedling johnsongrass [17] = assay: Post-emergence herbicide test; conditions: Sorghum halepense, read-out: % plant inhibition (Sejg); for inhibition at 11210 g/ha: 11.21 kg/ha
Text: as §5

Velvetleaf [18] = assay: Post-emergence herbicide test; conditions: Abutilon theophrasti, read-out: % plant inhibition (Vele); for inhibition at 11210 g/ha: 11.21 kg/ha
Text: as §5

Wild buckwheat [19] = assay: Post-emergence herbicide test; conditions: Fallopia convolvulus, read-out: % plant inhibition (Wibw); for inhibition at 11210 g/ha: 11.21 kg/ha
Text: as §5

Yellow nutsedge [20] = assay: Post-emergence herbicide test; conditions: Cyperus, read-out: % plant inhibition (Yens); for inhibition at 11210 g/ha: 11.21 kg/ha
Text: as §5

| Compound | inhibition at 11210 g/ha (Annual bluegrass [1]) [%] | inhibition at 11210 g/ha (Barnyardgrass [2]) [%] | inhibition at 11210 g/ha (Cocklebur [3]) [%] | inhibition at 11210 g/ha (Downy Brome [4]) [%] | inhibition at 11210 g/ha (Indian Mustard [5]) [%] | inhibition at 11210 g/ha (Morningglory [6]) [%] | inhibition at 11210 g/ha (Seedling johnsongrass [7]) [%] | inhibition at 11210 g/ha (Velvetleaf [8]) [%] | inhibition at 11210 g/ha (Wild buckwheat [9]) [%] | inhibition at 11210 g/ha (Yellow nutsedge [10]) [%] | inhibition at 11210 g/ha (Annual bluegrass [11]) [%] | inhibition at 11210 g/ha (Barnyardgrass [12]) [%] | inhibition at 11210 g/ha (Cocklebur [13]) [%] | inhibition at 11210 g/ha (Downy Brome [14]) [%] | inhibition at 11210 g/ha (Indian Mustard [15]) [%] | inhibition at 11210 g/ha (Morningglory [16]) [%] | inhibition at 11210 g/ha (Seedling johnsongrass [17]) [%] | inhibition at 11210 g/ha (Velvetleaf [18]) [%] | inhibition at 11210 g/ha (Wild buckwheat [19]) [%] | inhibition at 11210 g/ha (Yellow nutsedge [20]) [%] | other results |
| --- | --- | --- | --- | --- | --- | --- | --- | --- | --- | --- | --- | --- | --- | --- | --- | --- | --- | --- | --- | --- | --- |
| Cn1nc(C(F)(F)F)c(Cl)c1-c1cc([N+](=O)[O-])c(F)cc1F [Compound 77] | 80 | 30 | 0 | 10 | 30 | 0 | 40 | 30 | 20 | 0 | 20 | 20 | 20 | 0 | 60 | 10 | 20 | 30 | 60 | 0 | – |
| COc1cc(-c2nn(C)c(C(F)(F)F)c2Cl)c(F)cc1Br [Compound 94] | – | – | – | – | – | – | – | – | – | – | – | – | – | – | – | – | – | – | – | – | inhibition at 1120 g/ha (Annual bluegrass [1]; 1.12 kg/ha): 100%; inhibition at 1120 g/ha (Barnyardgrass [2]; 1.12 kg/ha): 100%; inhibition at 1120 g/ha (Cocklebur [3]; 1.12 kg/ha): 60%; inhibition at 1120 g/ha (Downy Brome [4]; 1.12 kg/ha): 100%; inhibition at 1120 g/ha (Indian Mustard [5]; 1.12 kg/ha): 100%; inhibition at 1120 g/ha (Morningglory [6]; 1.12 kg/ha): 90%; inhibition at 1120 g/ha (Seedling johnsongrass [7]; 1.12 kg/ha): 100%; inhibition at 1120 g/ha (Velvetleaf [8]; 1.12 kg/ha): 100%; inhibition at 1120 g/ha (Wild buckwheat [9]; 1.12 kg/ha): 100%; inhibition at 1120 g/ha (Yellow nutsedge [10]; 1.12 kg/ha): 20%; inhibition at 1120 g/ha (Annual bluegrass [11]; 1.12 kg/ha): 90%; inhibition at 1120 g/ha (Barnyardgrass [12]; 1.12 kg/ha): 100%; inhibition at 1120 g/ha (Cocklebur [13]; 1.12 kg/ha): 80%; inhibition at 1120 g/ha (Downy Brome [14]; 1.12 kg/ha): 100%; inhibition at 1120 g/ha (Indian Mustard [15]; 1.12 kg/ha): 80%; inhibition at 1120 g/ha (Morningglory [16]; 1.12 kg/ha): 90%; inhibition at 1120 g/ha (Seedling johnsongrass [17]; 1.12 kg/ha): 90%; inhibition at 1120 g/ha (Velvetleaf [18]; 1.12 kg/ha): 100%; inhibition at 1120 g/ha (Wild buckwheat [19]; 1.12 kg/ha): 100%; inhibition at 1120 g/ha (Yellow nutsedge [20]; 1.12 kg/ha): 10% |
| C#CCOc1cc(-c2nn(C)c(C(F)(F)Cl)c2Cl)c(F)cc1Cl [Compound 303] | 100 | 100 | 100 | 100 | 100 | 100 | 100 | 100 | 100 | 0 | 100 | 100 | 100 | 100 | 100 | 100 | 100 | 100 | 100 | 70 | – |
| Cn1nc(-c2ccc(Cl)cc2)c(Cl)c1C(F)(F)Cl [Compound 83] | 40 | 60 | 40 | 90 | 60 | 30 | 100 | 90 | 90 | 20 | 0 | 40 | 70 | 40 | 90 | 80 | 60 | 100 | 100 | 20 | – |
